Measurements published in US10183059B2, “Method for treating microbial infection” (GENERAL BIOLOGICALS CORPORATION, priority 2015, dated 2019).

Columns and labels:
[1] = test system: Wild type (WT) Candida albicans; assay: Salt and pH tolerance of candidacidal activity; format: cell-based
Method: Wild type (WT) Candida albicans was cultivated in a YPD medium at 30° C. overnight and then transferred to 5 ml of fresh YPD culture broth, cultivated subsequently for another 5 hours. After the fungi were collected by centrifugation, washed with 12.5 mM sodium acetate twice, redissolved with 12.5 mM NaOAc to yield a fungal concentration of 1.5×10^6 cells/ml. Fifty microliters of liquid fungal suspension was taken out to mix with 50 μl of sequentially diluted antimicrobial peptides and placed in different wells of a 96-well plate allowing to react for 1 hour at 37° C. (as shown in FIG. 4(A). Then, 50 μl of liquid fungal mixture was taken out and 450 μl PBS was added to terminate the reaction. Finally, 25 μl was taken out and inoculated on a solid YPD medium.

[2] = test system: Wild type (WT) Candida albicans; assay: Candidacidal activity against cell suspension, colony count; format: cell-based; conditions: 37° C., 1 hour
Method: Wild type (WT) Candida albicans was cultivated in a YPD medium at 30° C. overnight and then transferred to 5 ml of fresh YPD culture broth, subsequently cultivated for another 5 hours. After being collected by centrifugation, the fungi were washed with sodium acetate (12.5 mM) twice, redissolved with 12.5 mM sodium acetate to yield a fungal concentration of 1.5×10^5 cells/ml. 50 μl of liquid fungal suspension was taken out to be mixed with 50 μl of sequence-diluted antimicrobial peptide and placed in different wells of a 96-well plate, allowing to react (37° C.) for 1 hour (as shown in FIG. 4(A)). Then, 20 μl of fungal liquid mixture was added into 780 μl of PBS to terminate the reaction. Finally, 50 μl was taken out and inoculated on a solid YPD medium, cultivated at 30° C. for 24 hours, then the number of colonies were counted.

[3] = Circular dichroism secondary structure in 85% TFE, BeStSel analysis; format: physicochemical; conditions: CD analyzed by BeStSel
Method: The present invention utilized a Circular Dichroism Spectrometer (AVIV Company) to observe the secondary structure of the antimicrobial peptides. Circular dichoism spectra of P-113 and its derivatives were recorded over the wavelength range of 195-260 nm with readings every 1 nm by using a quartz cuvette having 1 mm optical path length. Ellipticities were represented as mean residue molar ellipticity (MRE). P-113, P-113Du and P-113Tri were dissolved in 85% trifluoroethanol (TFE) solution.

[4] = test system: och1Δ mutant strain; assay: Susceptibility of och1Δ mutant, CFU; format: cell-based, Candida albicans; conditions: och1Δ versus SN250, 1 h
Method: The SN250 and och1Δ mutant strains were grown overnight in YPD broth at 30° C. The overnight culture was then subcultured into fresh YPD medium and grown for 5 h. Cells were treated with different concentration of peptides for 1 h. After treatment, samples were serially diluted in PBS and 15 μl of each diluent was spotted onto YPD agar plates. Colony-forming units were counted after 24 h incubation at 30° C. The data were represented as the mean values±SD of three independent experiments.

[5] = test system: SC5314 strain of Candida albicans; assay: Intracellular ROS assay (DHE, MitoSOX Red, flow cytometry); format: cell-based; conditions: 0.25 μM, 1 h, 37° C.
Method: The SC5314 strain of Candida albicans (wild type or WT) were grown overnight in YPD broth at 30° C. The overnight culture was then subcultured into fresh YPD medium and grown for 5 h. Cells were harvested by centrifugation, washed twice with 12.5 mM sodium acetate (NaOAc) and resuspended in 12.5 mM NaOAc to a concentration of 1*10^7 cells/ml. The cells were treated with various AMPs (0.25 μM) for 1 h at 37° C. After treatment, cells were washed twice with 12.5 mM NaOAc. Dihydroethidium (DHE) is a superoxide indicator, and MitoSOX Red (MitoSOX) was introduced for selective detection of superoxide in the mitochondria of live cells. The intracellular ROS was measured using DHE (20 μM) staining for 30 min and MitoSOX Red (5 μM) for 60 min in PBS. Fluorescent detection was performed by flow cytometry.

[6] = test system: C. dubliniensis; format: cell-based
Method: (§1) The antimicrobial activities against clinical isolates and drug-resistant strains of P-113 and its derived peptides were examined. The present invention evaluated the effect of P-113 on 15 clinical isolates of fungi belonging to the genus Candida (see Table 1). Clinical isolates were cultivated overnight at 30° C. under shaking in a YPD cultural broth (1% yeast extract, 2% peptone and 2% glucose), cells were centrifuged and washed with YPD, then cultivated again in a YPD culture broth allowing to grow for 5 hours (initial optical density at 600 nm [OD600]˜0.5). Cells were washed with PBS and then collected by centrifugation, redissolved in a culture broth (modified RPMI 1640 medium, LYM), the cell concentration was adjusted to ˜0.1 [OD600]/ml and then treated with P-113. After the mixed solution was cultivated under shaking at 37° C. and 5% CO2 for 24 hours, absorbance measurement (OD value) was performed to determine the minimum inhibitory concentration (MIC).

[7] = test system: C. parapsilosis; format: cell-based
Method: as §1

[8] = test system: Staphylococcus aureus; assay: Antimicrobial effect against bacteria (MIC); format: cell-based; conditions: strain ATCC 33591
Method: (§2) Wild type (WT) Pseudomonas aeruginosa, Klebsiella pneumoniae, Enterobacter aerogenes, Staphylococcus aureus were cultivated overnight in LB medium at 37° C., then transferred to 5 ml of fresh LB culture broth, cultivated again for another 3 hours. Bacteria were collected by centrifugation, washed with sodium acetate (12.5 mM) twice, redissolved with 12.5 mM sodium acetate until the concentration was 1.5×10^5 cells/ml. Mixed with sequential-diluted anti-bacterial peptides, seeded in different wells of a 96-well plate allowing to react for 1 hour. Then, 20 μl of liquid bacterial mixture was taken out to mix with 780 μl of PBS (Phosphate-buffered saline) to terminate the reaction. 50 μl was then taken out and inoculated on a solid medium, after being cultivated at 30° C. for 24 hours, formed colonies were observed.

[9] = test system: Klebsiella pneumoniae; assay: Antimicrobial effect against bacteria (MIC); format: cell-based; conditions: strain CG43
Method: as §2

[10] = test system: Pseudomonas aeruginosa; assay: Antimicrobial effect against bacteria (MIC); format: cell-based; conditions: strain PAO1, ATCC 15692
Method: as §2

[11] = test system: Enterobacter aerogenes; assay: Antimicrobial effect against bacteria (MIC); format: cell-based; conditions: strain ATCC 13048
Method: as §2

[12] = test system: SC5314 strain of Candida albicans; assay: Effect of cell wall disrupting agents on peptide activity, CFU; format: cell-based; conditions: Proteinase K 1 mg/ml, 30 min
Method: The SC5314 strain of Candida albicans (wild type or WT) were grown overnight in YPD broth at 30° C. The overnight culture was then subcultured into fresh YPD medium and grown for 5 h. Cells were treated with Proteinase K (1 mg/ml) for 30 min or Zymolyase (5 mg/ml) for 1 h at 30° C., followed by reacting with different concentrations of the peptides for 1 h, respectively. After that, samples were serially diluted in phosphate-buffered saline (PBS) and 15 μl of each diluent was spotted onto YPD agar plates. Colony-forming units were counted after incubation at 30° C. for 24 h. The data were represented as the mean values±SD of three independent experiments.

[13] = test system: Candida albicans strain SC5314 biofilms; assay: Biofilm cell viability, XTT reduction assay; format: cell-based; conditions: biofilm cells, 37° C., 1 hr
Method: Candida albicans strain SC5314 was cultivated in a YPD medium overnight and then transferred to a fresh YPD culture broth, diluted until the concentration was 3×10^5 cells/ml. 100 μl of liquid fungal suspension was placed in a 96-well plate for cultivation at 37° C. for 24 hours, formed biofilms were washed with sodium acetate (12.5 mM). Then, sequence-diluted antimicrobial peptides P-113, P-113Du and P-113Tri (0-200 μM) were added, reacted at 37° C. for 1 hour, washed with PBS twice. The cellular activity of the biofilms was determined by using XTT (2,3-bis(2-methoxy-4-nitro-5-sulfophenyl)-2H-tetrazolium-5-carboxanilide) reduction assays to analyze the cell survival rate. To perform this reaction, XTT (0.5 mg/ml) and Menadione (0.5 μM) were dissolved in PBS and then added into a 96-well plate formed by biofilms, reacted at 30° C. for 30 minutes, the optical density was measured at wavelength 490 nm (OD490). The cellular activity of the biofilms was represented as a percentage.

C[C@H](N)C(=O)N[C@@H](CCCCN)C(=O)N[C@@H](CCCNC(=N)N)C(=O)N[C@@H](Cc1c[nH]cn1)C(=O)N[C@@H](Cc1c[nH]cn1)C(=O)NCC(=O)N[C@@H](Cc1ccc(O)cc1)C(=O)N[C@@H](CCCCN)C(=O)N[C@@H](CCCNC(=N)N)C(=O)N[C@@H](CCCCN)C(=O)N[C@@H](Cc1ccccc1)C(=O)N[C@@H](Cc1c[nH]cn1)C(=O)N[C@@H](C)C(=O)N[C@@H](CCCCN)C(=O)N[C@@H](CCCNC(=N)N)C(=O)N[C@@H](Cc1c[nH]cn1)C(=O)N[C@@H](Cc1c[nH]cn1)C(=O)NCC(=O)N[C@@H](Cc1ccc(O)cc1)C(=O)N[C@@H](CCCCN)C(=O)N[C@@H](CCCNC(=N)N)C(=O)N[C@@H](CCCCN)C(=O)N[C@@H](Cc1ccccc1)C(=O)N[C@@H](Cc1c[nH]cn1)C(N)=O [P-113Du]
candidacidal activity ([1]; 93.75 mM sodium acetate): potent candidacidal activity | candidacidal activity ([1]; pH 4.5, 6, and 8): consistent candidacidal activity | activity for killing fungus compared with P-113 [2]: stronger activity for killing fungus than P-113 | content of the α-helical secondary structure [3]: 10.6% | susceptibility of och1Δ mutant to peptide [4]: resistant | intracellular ROS formation [5]: induced intracellular ROS formation | Minimum Inhibitory Concentration [6]: 3.10 µg/mL | Minimum Inhibitory Concentration [7]: 0.78 µg/mL | Minimum Inhibitory Concentration (MIC) [8]: 25 µg/mL | Minimum Inhibitory Concentration (MIC) [9]: 12.5 µg/mL | Minimum Inhibitory Concentration (MIC) [10]: 3.125 µg/mL | Minimum Inhibitory Concentration (MIC) [11]: 25 µg/mL | candidacidal activity after proteinase K treatment of cells [12]: failed to kill C. albicans | concentration causing 50% reduction in the metabolic activity (50% RMA) [13]: 51.54 µg/mL

C[C@H](N)C(=O)N[C@@H](CCCCN)C(=O)N[C@@H](CCCNC(=N)N)C(=O)N[C@@H](Cc1c[nH]cn1)C(=O)N[C@@H](Cc1c[nH]cn1)C(=O)NCC(=O)N[C@@H](Cc1ccc(O)cc1)C(=O)N[C@@H](CCCCN)C(=O)N[C@@H](CCCNC(=N)N)C(=O)N[C@@H](CCCCN)C(=O)N[C@@H](Cc1ccccc1)C(=O)N[C@@H](Cc1c[nH]cn1)C(=O)N[C@@H](C)C(=O)N[C@@H](CCCCN)C(=O)N[C@@H](CCCNC(=N)N)C(=O)N[C@@H](Cc1c[nH]cn1)C(=O)N[C@@H](Cc1c[nH]cn1)C(=O)NCC(=O)N[C@@H](Cc1ccc(O)cc1)C(=O)N[C@@H](CCCCN)C(=O)N[C@@H](CCCNC(=N)N)C(=O)N[C@@H](CCCCN)C(=O)N[C@@H](Cc1ccccc1)C(=O)N[C@@H](Cc1c[nH]cn1)C(=O)N[C@@H](C)C(=O)N[C@@H](CCCCN)C(=O)N[C@@H](CCCNC(=N)N)C(=O)N[C@@H](Cc1c[nH]cn1)C(=O)N[C@@H](Cc1c[nH]cn1)C(=O)NCC(=O)N[C@@H](Cc1ccc(O)cc1)C(=O)N[C@@H](CCCCN)C(=O)N[C@@H](CCCNC(=N)N)C(=O)N[C@@H](CCCCN)C(=O)N[C@@H](Cc1ccccc1)C(=O)N[C@@H](Cc1c[nH]cn1)C(N)=O [P-113Tri]
candidacidal activity ([1]; 93.75 mM sodium acetate): potent candidacidal activity | antifungal activity in the high salt environment ([1]; 62.5 and 93.75 mM): maintained strong antifungal activity | candidacidal activity ([1]; pH 4.5, 6, and 8): consistent candidacidal activity | activity for killing fungus compared with P-113 [2]: stronger activity for killing fungus than P-113 | content of the α-helical secondary structure [3]: 21.4% | susceptibility of och1Δ mutant to peptide [4]: still sensitive | ROS-inducing ability, rank among peptides [5]: strongest ROS-inducing ability | intracellular ROS formation [5]: induced intracellular ROS formation | Minimum Inhibitory Concentration [6]: 3.10 µg/mL | Minimum Inhibitory Concentration [7]: 0.78 µg/mL | Minimum Inhibitory Concentration (MIC) [8]: 25 µg/mL | Minimum Inhibitory Concentration (MIC) [9]: 6.25 µg/mL | Minimum Inhibitory Concentration (MIC) [10]: 3.125 µg/mL | Minimum Inhibitory Concentration (MIC) [11]: 12.5 µg/mL | candidacidal activity after proteinase K treatment of cells [12]: failed to kill C. albicans | concentration causing 50% reduction in the metabolic activity (50% RMA) [13]: 43.245 µg/mL

LL-37: the control peptide (LLGDFFRKSKEKIGKEFKRIVQRIKDFLRNLVPRTES; Antibacterial peptide LL-37; UniProt P49913 134-170, looked up) [reference compound]
susceptibility of och1Δ mutant to peptide [4]: resistant | candidacidal activity after proteinase K treatment of cells [12]: can still kill C. albicans cells
